Values of other authors as cited in patent publication US20070112050A1, “HMGCoA reductase inhibitor combinations and uses thereof” (pSivida Inc., priority 2005, published 2007).
Read-outs that look alike come from different tables or passages of the source. Values belong to the compound of their own block, whether it stands above or below them.

Experiments:
[1] = tested on: low density lipoprotein cholesterol (LDL); details: ezetimibe administered alone
HMGCoA reductase (HMGR) = target: T1, HMGCoA reductase (HMGR) (Homo sapiens, UniProt P04035); details: substrate of HMGCoA reductase; read-out: Michaelis constant, Km
T1 sequence (P04035 1-888): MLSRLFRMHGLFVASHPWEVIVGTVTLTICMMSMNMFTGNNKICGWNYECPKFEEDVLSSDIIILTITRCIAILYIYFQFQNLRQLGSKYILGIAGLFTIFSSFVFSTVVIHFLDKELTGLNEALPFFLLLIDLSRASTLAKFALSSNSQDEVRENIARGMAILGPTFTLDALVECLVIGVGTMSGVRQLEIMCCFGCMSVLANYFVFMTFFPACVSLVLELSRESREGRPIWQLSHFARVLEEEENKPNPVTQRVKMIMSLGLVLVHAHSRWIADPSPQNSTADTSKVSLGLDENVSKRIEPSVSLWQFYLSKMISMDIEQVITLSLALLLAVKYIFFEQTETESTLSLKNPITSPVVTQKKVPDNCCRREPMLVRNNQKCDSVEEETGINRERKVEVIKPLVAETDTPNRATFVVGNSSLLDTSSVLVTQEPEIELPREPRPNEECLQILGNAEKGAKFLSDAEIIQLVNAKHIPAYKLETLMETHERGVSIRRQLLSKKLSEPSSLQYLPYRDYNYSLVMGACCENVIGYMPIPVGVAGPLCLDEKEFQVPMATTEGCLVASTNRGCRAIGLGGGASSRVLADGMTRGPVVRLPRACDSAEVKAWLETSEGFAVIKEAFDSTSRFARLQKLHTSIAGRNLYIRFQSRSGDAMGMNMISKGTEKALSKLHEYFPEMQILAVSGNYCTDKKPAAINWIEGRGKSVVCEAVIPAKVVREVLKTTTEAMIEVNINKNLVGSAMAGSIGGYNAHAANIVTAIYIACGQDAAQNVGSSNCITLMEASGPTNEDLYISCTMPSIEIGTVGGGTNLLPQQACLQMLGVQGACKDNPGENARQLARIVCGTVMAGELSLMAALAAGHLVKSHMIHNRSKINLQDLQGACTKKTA

Half-life (human body): 6 h
Compound: CCCCC(=O)N(Cc1ccc(-c2ccccc2-c2nnn[nH]2)cc1)[C@H](C(=O)O)C(C)C [Valsartan, valsartan]

Half-life (human body): 5 h
Compound: CCCCc1nc(Cl)c(CO)n1Cc1ccc(-c2ccccc2-c2nn[nH]n2)cc1 [Losartan, losartan]

Active metabolite (human body): No
Half-life (human body): 13 h
Compound: CCCCC1=NC2(CCCC2)C(=O)N1Cc1ccc(-c2ccccc2-c2nnn[nH]2)cc1 [Irbesartan, irbesartan]

The remaining lines, values behind:

Compound: O=C1[C@H](CC[C@H](O)c2ccc(F)cc2)[C@@H](c2ccc(O)cc2)N1c1ccc(F)cc1 [ezetimibe]
reduction of LDL [1]: 17%

Compound: CCOc1nc2cccc(C(=O)O)c2n1Cc1ccc(-c2ccccc2-c2nnn[nH]2)cc1 [Candesartan, candesartan]
Half-life (human, in vivo): 10 h
Active metabolite (in vivo): Yes
Major route of inactivation (in vivo): Liver and renal

Compound: CC(C)(COP(=O)(O)OP(=O)(O)OC[C@H]1O[C@@H](n2cnc3c(N)ncnc32)[C@H](O)[C@@H]1OP(=O)(O)O)[C@@H](O)C(=O)NCCC(=O)NCCSC(=O)C[C@@](C)(O)CC(=O)O [HMGCoA, (S)-3-hydroxy-3-methylglutaryl-CoA]
Km (HMGCoA reductase (HMGR)): 4 µM
